From article PMC6982702, “Extensive Structure Modification on Luteolin-Cinnamic Acid Conjugates Leading to BACE1 Inhibitors with Optimal Pharmacological Properties” (Molecules, 2019)
Several values for one entry are separate records, joined by “and”; a condition that tells them apart may be missing. Identical values can stand only once. Like-named read-outs stand apart in the source and are kept apart here.

Legend:
MTT cytotoxicity assay = type: cell-based; settings: human, 24 h exposure
Description: It is crucial for the BACE1 inhibitors to exert their activities at sub-toxic concentration, and thus their cytotoxicity was assessed in HEK293 cells by 3-[4,5-dimethylthiazol-2-yl]-2,5-diphenyl-tetrazolium bromide (MTT) assays (Table 5). […] Unfortunately, there was no obvious relationship between the structures and their cytotoxicity.
The cytotoxicity was examined by using 3-[4,5-dimethylthiazol-2-yl]-2,5-diphenyl-tetrazolium bromide (MTT) assay. HEK293T cells were seeded with complete DMEM into 96-well plates ([…], 100 µL/well), incubated at 37 °C in a humidified atmosphere with 5% CO2 for 24 h. All the compounds were diluted with the phenol red-free DMEM at a specific concentration. After 24 h of exposure to different concentrations of compound, the supernatant was removed and then 20% (v/v) MTT (5 mg/mL) diluted with fresh culture medium was added into each well and incubated for 4 h. Cells were lysed with 100 μL dimethyl sulfoxide (DMSO) and shaken for 10 min at room temperature. The absorbance in each well was detected at a wavelength of 490 nm using a Universal Microplate Reader (ELX 800 lv, BIO-TEK Instruments, Inc., Winooski, VT, USA).

BACE1 [1] = biological target: T1, BACE1 (Homo sapiens, UniProt P56817); assay: In vitro BACE1 FRET enzyme assay; type: biochemical; settings: for inhibition at 10 µM: read-out: Inhibition Rate at 10 μM (%); for selectivity on BACE1 over BACE2 and renin: from IC50 values of Table 6
T1 construct: purchased PanVera Co. (Invitrogen, USA)
Description: The BACE1 FRET assay kit was purchased from the PanVera Co. (Invitrogen, USA). The assay was carried out according to the supplied manual with modifications. […] The fluorescence intensity was measured with a TECAN infinite 200 microplate reader for 60 min at 25 °C in the dark. […] The percent inhibition (%) was obtained by the following equation: Inhibition % = (1 −SS/SC) × 100%, where SC is the slope of fluorescence change of the control (enzyme, buffer, and substrate) during 60 min, and SS is the slope of fluorescence change of the tested samples (enzyme, sample solution, and substrate) during 60 min of measurement. IC50 values were calculated from the nonlinear curve fitting of percentage inhibition against inhibitor concentration using Prism 3.0 software (GraphPad Software, San Diego, CA, USA).

[2] = system: Aβ-38, Aβ-40, Aβ-42 in HEK293 cells stably overexpressing human APP695; assay: Inhibition of Aβ production in APP overexpressed cells (V-Plex Aβ Peptide Panel immunoassay); type: cell-based; settings: for Aβ levels: higher concentrations (10, 25, and 50 µM), 23 h; for Aβ levels / Aβ-42 levels: DMSO = 100%
Description: To assess the cellular BACE1 inhibitory activity of the conjugates, 7a–d, 7i, and 7k were incubated in APP overexpressing HEK293 cells and their inhibition on the three main Aβ species Aβ-38, Aβ-40, and Aβ-42—the main amyloidogenic peptides produced by BACE1 cleavage of APP peptide—was measured by an ELISA-like immunoassay method. Aβ levels were normalized to the protein concentration in the lysate in order to rule out differences in total cell number per well of the culture plate. Additionally, the normalized Aβ level was set to 100% for the DMSO-treated control.
HEK293 cells stably overexpressing human APP695 were plated in a poly-D-lysine-coated 96-well plates and grown to a density of 80–90%. Compounds were dissolved in DMSO to make a 10 mM stock solution and diluted in DMEM complete medium to the final concentrations: 0.1, 1.0, 5.0, 10.0, 25.0, and 50.0 µM. DMSO was used at a 1:200 dilution as a negative control and a commercially available BACE1 inhibitor (C3, also known as BACE inhibitor IV) as a positive control. After 23 h of incubation, the cell supernatants were directly used for measurement in the V-Plex Aβ Peptide Panel 1 (6E10) Kit from Meso Scale Diagnostics (Rockville, MD, USA) for measuring Aβ38, −40, and −42 simultaneously. Cells were washed with PBS and lysed in Triton X100 lysis buffer for subsequent protein concentration (BCA) measurement.

BACE1 [3] = biological target: T1, BACE1; parameters: method as in PMID 31557620; settings: previous work ref 13; cited from earlier work
BACE1 [4] = biological target: T1, BACE1; assay: Kinetic analysis of BACE1 inhibition (Dixon plot); type: biochemical; settings: for Ki: BACE1 substrate 250, 500, 750 nM
Description: The Dixon plot was used to determine the kinetics of 4l, 7c, and 7k inhibiting BACE1.
The Dixon plot is a graphical method (plot of 1/enzyme velocity (1/V) against inhibitor concentration (I)) for determination of the type of enzyme inhibition, which was used to determine the dissociation or inhibition constant (Ki) for the enzyme inhibitor complex. The Dixon plots for BACE1 inhibition were obtained in the presence of various concentrations of BACE1 substrate (250, 500, 750 nM) and the concentrations of 4l, 7c, and 7k as follows: 0.1 µM, 0.5 µM, 1.0 µM. In this way, the inhibition constants (Ki) of 4e were determined by interpretation of Dixon plots, where the value of the x-axis represents −Ki when 1/V = 0. […]
The Dixon plot is a graphical method [plot of 1/enzyme velocity (1/V) against inhibitor
concentration (I)] for determination of the type of enzyme inhibition and was used to determine the
dissociation or inhibition constant (Ki) for the enzyme inhibitor complex (Cornish-Bowden, 1974).
The Dixon plots for BACE1 inhibition were obtained in the presence of various concentrations of […]
BACE1 substrate (250, 500, 750 nM) and the concentrations of 4l, 7c and 7k as follows: 0.1 µM, 0.5 µM,
1.0µM. In this way, the inhibition constants (Ki) of 4e were determined by in terpretation of Dixon
plots, w here t he value of the X -axis represents -Ki when 1/V=0.
Figure 3. Kinetic analysis of 4l.
Figure 4. Kinetic anal ysis of 7k. […]
The BACE1 FRET assay kit was purchased from the PanVera Co. (Invitroge, USA). The assay
was carried out according to the supplied manual with modifications. Briefly, assays were
performed in triplicate in 384-well black plates with a mixture of 5 μL of BACE1 (1.0 U/ml), 5 μL of
the substrate (750 nM, Rh-[…]- Quencherin 50 mM, ammonium bicarbonate), and 5 μL of
compound dissolved in 10% DMSO. The fluorescence intensity was measured with a TECAN
infinite 200 microplate reader for 60 min at 25 °C in the dark. The mixture was irradiated at 544 nm
and the emission intensity recorded at 590 nm. The percent inhibition (%) was obtained by the
following equation: Inhibition % = (1-SS/SC) × 100%, where SC is the slope of fluorescence change of
the control (enzyme, buffer, and substrate) during 60 min, and SS is the slope of fluorescence change
of the tested samples (enzyme, sample solution, and substrate) during 60 min of measurement. […]

BACE2 = biological target: T2, BACE2 (Homo sapiens, UniProt Q9Y5Z0); assay: Enzyme selectivity: BACE2 inhibition; type: biochemical
T2 sequence (Q9Y5Z0 63-518): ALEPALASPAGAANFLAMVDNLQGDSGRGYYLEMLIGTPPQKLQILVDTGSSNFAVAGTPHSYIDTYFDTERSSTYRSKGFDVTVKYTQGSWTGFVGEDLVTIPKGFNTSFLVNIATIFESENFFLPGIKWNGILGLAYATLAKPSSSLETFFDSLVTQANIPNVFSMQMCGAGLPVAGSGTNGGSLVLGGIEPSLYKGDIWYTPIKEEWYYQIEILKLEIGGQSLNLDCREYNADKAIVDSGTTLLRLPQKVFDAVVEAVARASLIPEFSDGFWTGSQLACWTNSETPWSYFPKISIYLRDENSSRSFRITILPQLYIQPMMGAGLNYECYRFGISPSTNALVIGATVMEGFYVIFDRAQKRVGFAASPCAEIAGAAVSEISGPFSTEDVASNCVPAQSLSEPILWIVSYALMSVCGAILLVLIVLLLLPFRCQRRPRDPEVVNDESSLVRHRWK
Excerpt: (§1) As BACE1 is a member of aspartyl protease family, its selective inhibition over other closely related proteases is required to avoid possible severe side effects.

Renin = biological target: T3, Renin (Homo sapiens, UniProt P00797); assay: Enzyme selectivity: renin inhibition; type: biochemical
T3 sequence (P00797 67-406): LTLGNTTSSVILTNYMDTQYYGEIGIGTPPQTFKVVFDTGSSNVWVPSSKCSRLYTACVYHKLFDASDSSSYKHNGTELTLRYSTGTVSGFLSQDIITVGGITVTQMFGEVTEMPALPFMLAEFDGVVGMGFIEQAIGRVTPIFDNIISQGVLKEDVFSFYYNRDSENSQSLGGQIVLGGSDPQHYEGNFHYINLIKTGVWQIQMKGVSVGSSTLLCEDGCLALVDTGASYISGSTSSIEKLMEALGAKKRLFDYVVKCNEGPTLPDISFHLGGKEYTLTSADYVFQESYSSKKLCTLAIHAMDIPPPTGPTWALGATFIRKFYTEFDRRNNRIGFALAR
Excerpt: as §1

[5] = HEK293 cells (method text: HEK293T)
[6] = BACE1 FRET assay, 10 μM compound

T1 sequence (P56817 46-501): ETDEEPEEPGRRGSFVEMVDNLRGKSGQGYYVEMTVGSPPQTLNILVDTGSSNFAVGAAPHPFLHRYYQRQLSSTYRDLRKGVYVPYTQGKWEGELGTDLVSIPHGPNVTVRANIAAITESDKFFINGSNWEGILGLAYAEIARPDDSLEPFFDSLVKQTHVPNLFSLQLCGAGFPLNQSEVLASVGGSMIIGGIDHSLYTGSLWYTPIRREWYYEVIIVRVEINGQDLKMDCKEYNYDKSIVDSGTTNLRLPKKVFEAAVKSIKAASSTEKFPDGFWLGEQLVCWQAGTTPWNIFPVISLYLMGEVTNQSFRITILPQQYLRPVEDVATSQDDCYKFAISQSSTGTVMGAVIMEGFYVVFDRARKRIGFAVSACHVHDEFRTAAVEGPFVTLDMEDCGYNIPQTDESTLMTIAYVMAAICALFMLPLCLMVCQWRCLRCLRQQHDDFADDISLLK

In the case of O=c1cc(-c2ccc(O)c(O)c2)oc2cc(O)cc(O)c12 [Compound 1, luteolin], the IC50 at 24 h (MTT cytotoxicity assay; [5]) is reported as 39.8 µM, the “Inhibition Rate at 10 μM (%)” value (BACE1 [1]; BACE1 FRET assay, 10 μM compound, 10 µM) is reported as 64.8 ± 6.0% and the inhibition at 10 µM (BACE1 [1]; [6]) is reported as 68.6 ± 8.9%. For the same compound, the Aβ levels [2] was “dose-dependently reduced Aβ levels”.
In the case of O=C(/C=C/c1ccc(O)cc1)OCCOc1cc(O)c2c(=O)cc(-c3ccc(O)c(O)c3)oc2c1 [Compound 3], the IC50 at 24 h (MTT cytotoxicity assay; [5]) is given as 62.4 µM, the “mode of BACE1 inhibition” value (BACE1 [3]) is given as “non-competitive inhibitor” and the IC50 (BACE1 [1]; BACE1 FRET assay) is given as 2.19 µM and 1.87 µM. It also gave an inhibition at 10 µM (BACE1 [1]; [6]) of 64.8 ± 6%.
For O=C(/C=C/c1ccc(O)cc1)OCCOc1cccc2c(=O)cc(-c3ccc(O)c(O)c3)oc12 [Compound 4l], the “mode of BACE1 inhibition” value (BACE1 [4]) was “mix-competitive mode”, the Ki (BACE1 [4]) was 800 nM and the IC50 (BACE1 [1]; BACE1 FRET assay) was 2.47 ± 0.17 µM. For the same compound, the inhibition at 10 µM (BACE1 [1]; [6]) was 58.4 ± 10.2%.
In the case of O=C(/C=C/c1cccc(O)c1)OCCOc1cc(O)c2c(=O)cc(-c3ccc(O)c(O)c3)oc2c1 [Compound 7c], the IC50 at 24 h (MTT cytotoxicity assay; HEK293 cells (method text: HEK293T cells)) is reported as 90 µM, the IC50 (BACE2) is reported as greater than 100 µM and the “mode of BACE1 inhibition” value (BACE1 [4]) is reported as “non-competitive inhibitor”. The Ki (BACE1 [4]) was 1200 nM, the IC50 (BACE1 [1]; BACE1 FRET assay) was 1.44 ± 0.18 µM and the inhibition at 10 µM (BACE1 [1]; [6]) was 66.7 ± 8.3%. For the same compound, the “selectivity on BACE1 over BACE2 and renin” value (BACE1 [1]) was 2–3 orders of magnitude, the Aβ-42 level ([2]; 25 µM) was “obvious inhibition” and the IC50 (Renin) was greater than 100 µM.
For COc1ccc(/C=C/C(=O)OCCOc2cc(O)c3c(=O)cc(-c4ccc(O)c(O)c4)oc3c2)cc1 [Compound 7i, (E)-2-((2-(3,4-dihydroxyphenyl)-5-hydroxy-4-oxo-4H-chromen-7-yl)oxy)ethyl 3-(4-methoxyphenyl)acrylate], the IC50 at 24 h (MTT cytotoxicity assay; [5]) was 3.94 µM, the inhibition at 10 µM (BACE1 [1]; [6]) was 28.9 ± 4.4% and the Aβ-42 levels [2] was “increased Aβ-42 levels”. The Aβ levels [2] was “did not reduce Aβ levels”.
With O=C(/C=C/c1cccnc1)OCCOc1cc(O)c2c(=O)cc(-c3ccc(O)c(O)c3)oc2c1 [Compound 7k, (E)-2-((2-(3,4-dihydroxyphenyl)-5-hydroxy-4-oxo-4H-chromen-7-yl)oxy)ethyl 3-(pyridin-3-yl)acrylate] the IC50 at 24 h (MTT cytotoxicity assay; [5]) was greater than 100 µM, the IC50 (BACE2) was greater than 100 µM and the “mode of BACE1 inhibition” value (BACE1 [4]) was “mix-competitive mode”. The Ki (BACE1 [4]) was 320 nM, the IC50 (BACE1 [1]; BACE1 FRET assay) was 0.15 µM and the inhibition at 10 µM (BACE1 [1]; [6]) was 54.4 ± 3.5%. The “enhancement of BACE1 inhibitory activity compared with the flavone segment 1 or conjugate 3” value (BACE1 [1]; from IC50) was roughly 10 fold, the “selectivity on BACE1 over BACE2 and renin” value (BACE1 [1]) was 2–3 orders of magnitude and the Aβ-42 levels [2] was “increased Aβ-42 levels”. For the same compound, the Aβ levels [2] was “did not reduce Aβ levels” and the IC50 (Renin) was greater than 100 µM.
O=C(/C=C/c1ccc(O)cc1)NCCOc1cc(O)c2c(=O)cc(-c3ccc(O)c(O)c3)oc2c1 [Compound 8] showed an IC50 at 24 h (MTT cytotoxicity assay; [5]) greater than 100 µM, an IC50 (BACE2) greater than 100 µM and an IC50 (BACE1 [1]; BACE1 FRET assay) of 4.15 ± 1.97 µM. For the same compound, the inhibition at 10 µM (BACE1 [1]; [6]) was 59.5 ± 4.4% and the IC50 (Renin) was 25.4 µM.
